Data on two compounds can be found in patent US12551474B2, “Use of pridopidine for the treatment of fragile X syndrome” (PRILENIA NEUROTHERAPEUTICS LTD., priority 2017, dated 2026).

Where two headings read alike, the source gives them in different places.

One experiment concerns human FXS neurons. Conditions: 8-day period, vs DMSO. The text has this:
Control cells used were a human Embryonic Stem (ES) cell line.
FIG. 2A upper panels show MAP2/Tuj-1/DNA immunostaining; lower panels show GABA/NeuN/DNA immunostaining.
Neurite growth is a surrogate of neuronal development and maturation.
Open squares show data from DMSO treated FXS neurons.

For a further experiment, the system named is FXS neurons. In words: neurite outgrowth in FXS neurons with genetic or pharmacological inactivation of S1R. Format: cell-based, human.
The test system of experiment [1] is human patients afflicted with a FXS related disorder. Conditions: periodic (daily or twice daily) oral administration, pediatric or adult patients. How it is done: The human patients are pediatric patients or adult patients.
A pridopidine composition as described herein is administered orally to a subject suffering from a FXS related disorder.

In experiment [2] the test system is human patients afflicted with FXS. Conditions: periodic (daily or twice daily) oral administration, pediatric or adult patients.
For a further experiment, the system named is rat striatum. To be noted: transcriptomic analysis; cited from earlier work.
For experiment [3], the system named is Q175 knock-in (Q175 KI) HD mouse model. To be noted: cited from earlier work.
The test system of another experiment is neuroblastoma cell line. To be noted: S1R-dependent; cited from earlier work.

In the case of `CCCN1CCC(c2cccc(S(C)(=O)=O)c2)CC1` [pridopidine, 4-[3-(methylsulfonyl)phenyl]-1-propyl-piperidine], the “neurite growth in FXS neurons” value with human FXS neurons (1 uM pridopidine) and in the experiment with human FXS neurons (5 uM pridopidine) was “significant improvement in neurite growth” throughout. In addition, the “neurite outgrowth in FXS neurons” value with FXS neurons (100 nM pridopidine for 24 hrs) is recorded as “improvement in neurite outgrowth”. Further, in the experiment with FXS neurons (100 nM pridopidine for 24 hrs, S1RKO (Cas9)), the “improvement in neurite outgrowth in FXS neurons in which S1R was inactivated (S1RKO)” value is listed as “abolished”. In experiment [1], the “treatment of a FXS related disorder” value was “effective”. Also, the “treatment of FXS” value in experiment [2] is on record as “effective”. Besides, the “expression of BDNF, D1R, GR and Akt/PI3K pathways” value in the experiment on rat striatum was “activates expression”. In addition, in experiment [3], the “gene expression profile versus HD disease gene expression profile” value is recorded as “reversed pattern”. Besides, in the experiment with neuroblastoma cell line, the “secretion of BDNF” value is recorded as “enhances secretion”.

For the compound `CCCN(CCC)CCc1ccc(OC)c(OCCc2ccccc2)c1` [NE-100, reference compound], the “effect on pridopidine-mediated neurite outgrowth improvement in FXS neurons” value with FXS neurons (co-administration of NE-100 (1 μM) with pridopidine) is “blocked the effect of pridopidine”.
